Experimental findings from patent US20170313669A1, “LACTONE COMPOUNDS AND METHODS OF MAKING AND USING SAME” (THE SCRIPPS RESEARCH INSTITUTE, priority 2015, published 2017) are described below.

The IC50 is the concentration at which inhibition is half-maximal. A high value points to weaker potency in that assay. One may read the inhibition as the relative decrease from the control value, in per cent. A lower inhibition goes with little suppression.

SMILES strings stand for the structures.

Assay [1] addresses T1, ABHD16A (Homo sapiens, UniProt O95870).
T1 sequence (O95870 1-558): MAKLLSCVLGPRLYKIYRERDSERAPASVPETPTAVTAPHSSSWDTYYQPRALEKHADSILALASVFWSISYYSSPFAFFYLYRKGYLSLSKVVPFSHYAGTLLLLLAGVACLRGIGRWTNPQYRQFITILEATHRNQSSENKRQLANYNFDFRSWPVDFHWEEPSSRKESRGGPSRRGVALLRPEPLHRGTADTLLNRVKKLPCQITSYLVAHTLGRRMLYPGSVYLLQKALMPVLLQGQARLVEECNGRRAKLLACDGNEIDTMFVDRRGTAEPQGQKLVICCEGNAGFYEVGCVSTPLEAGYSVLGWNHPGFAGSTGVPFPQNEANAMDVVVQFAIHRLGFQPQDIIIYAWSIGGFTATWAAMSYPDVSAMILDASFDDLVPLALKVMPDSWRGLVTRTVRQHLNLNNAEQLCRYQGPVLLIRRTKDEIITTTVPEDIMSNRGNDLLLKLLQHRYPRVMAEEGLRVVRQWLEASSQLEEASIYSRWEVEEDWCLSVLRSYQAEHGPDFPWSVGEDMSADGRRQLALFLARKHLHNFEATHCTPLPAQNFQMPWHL
The assay is described as follows: PS substrate assay, human ABHD16A-transfected HEK293T membrane proteome. It is filed as biochemical. The arrangement: transiently transfected with 12 μg of the full-length cDNA of human ABHD16A (Open Biosystems Catalog # MHS6278-202758315); host or cells: HEK293T, transient, pCMV-SPORT6. Here is the method:
HEK293T cells were grown to 40% confluence in a 15 cm dish in 25 mL of Dulbecco's modified Eagle medium (DMEM) supplemented with L-glutamine and 10% (vol/vol) FCS at 37° C. and 5% CO2 (vol/vol). The cells were transiently transfected with 12 μg of the full-length cDNA of human ABHD16A (Open Biosystems Catalog # MHS6278-202758315) or murine ABHD16A (Open Biosystems Catalog # MMM1013-202760516) in pCMV-SPORT6 vector using 40 μg polyethyleneimine “MAX” (MW 40,000) (PEI) (Polysciences Inc. Catalog #24765) as the transfection reagent as per manufacturer's instructions. As a “mock” control, an empty vector was transiently transfected. […] Protein concentration was measured using the Bio-Rad DC Protein Assay Kit as per manufacturer's protocol, and ABHD16A expression was confirmed using gel-based ABPP.
All the lipid species used in the lipid substrate hydrolysis assays were purchased from Avanti Polar Lipids Inc unless mentioned otherwise. […] All the data was collected and analyzed using the Agilent MassHunter Workstation software version B.04 using the Data Acquisition and Quantitative Analysis programs respectively. Measuring the area under the peak, and normalizing it to the internal standard quantified the product release for the lipid substrate hydrolysis assays. […] Some products from the substrate hydrolysis assays were detected in positive ion mode for qualitative identification. […]

Another assay deals with T2, ABHD2 (Homo sapiens, UniProt P08910).
T2 construct: All ABPP-SILAC experiments were performed using the human COLO205 colon cancer cell line; endogenous in cells; host or cells: COLO205
The assay is described as follows: ABPP-SILAC, COLO205 cells treated in situ. The format is cell-based. The following applies: COLO 205, 4 h.

The target of assay [2] is T1, ABHD16A. The assay is described as follows: ABPP-SILAC, COLO205 cells treated in situ. The format is cell-based. More on the design: All ABPP-SILAC experiments were performed using the human COLO205 colon cancer cell line; endogenous in cells; host or cells: COLO205.

T2 sequence (P08910 whole entry): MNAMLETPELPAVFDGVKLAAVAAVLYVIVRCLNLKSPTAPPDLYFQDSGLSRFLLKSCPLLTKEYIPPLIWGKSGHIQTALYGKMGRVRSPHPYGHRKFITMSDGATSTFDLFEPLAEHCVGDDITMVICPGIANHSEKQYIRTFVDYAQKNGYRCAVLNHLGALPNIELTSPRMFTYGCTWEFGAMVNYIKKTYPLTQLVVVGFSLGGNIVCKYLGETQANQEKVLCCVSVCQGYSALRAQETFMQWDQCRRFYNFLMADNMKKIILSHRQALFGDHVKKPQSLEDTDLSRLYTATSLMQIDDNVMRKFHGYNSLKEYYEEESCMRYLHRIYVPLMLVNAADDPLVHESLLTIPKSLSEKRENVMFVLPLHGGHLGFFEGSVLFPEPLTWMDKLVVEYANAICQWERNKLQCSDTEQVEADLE

Turning to `CCCCCCCCCCCCCC1OC(=O)/C1=C\CCCCC(N)=O` (stereo not shown) [KC01, (Z)-6-(2-oxo-4-tridecyloxetan-3-ylidene)hexanamide], the IC50 on ABHD16A [1] was found to be 90 ± 20 nM. The inhibition at 1 µM was 94% against ABHD2 and 98% at ABHD16A [2] (COLO 205, 4 h). In addition, at ABHD16A [2] (1 μM, 4 h), the “light:heavy ratio” value stood at 0.02.
